Results reported in patent US20070249607A1, “NK-1 AND SEROTONIN TRANSPORTER INHIBITORS” (Bristol-Myers Squibb Company, priority 2006, published 2007).
Like-named read-outs stand apart in the source and are kept apart here.

Key:
[1] = biological target: T1, human serotonin transporters (Homo sapiens, UniProt P31645); experiment: Serotonin transporter binding assay ([3H]-citalopram competition, HEK-hSERT cell membranes)
T1 construct: expressed in transfected cells
Procedure, shortened: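 Membranes from HEK-293 cells stably expressing hSERT incubated 1 hr at 25 °C with 1 nM [3H]-citalopram and test compound in 50 mM Tris pH 7.4, 120 mM NaCl, 5 mM KCl; filtration read-out. Nonspecific binding: 10 μM fluoxetine. IC50 from displacement curve; Ki via Cheng–Prusoff.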

[2] = biological target: T2, neurokinin-1 (NK-1) receptor (Homo sapiens, UniProt P25103); experiment: NK-1 Binding assay ([125I] Substance P competition, U373 cell membranes); conditions: Table 2; U373 membranes, [125I] Substance P displacement; read-out: NK-1 IC50
T2 construct: a human glioblastoma-astrocytoma cell line that endogenously expresses the neurokinin-1 (NK-1) receptor; endogenous in cells; host or cells: U373 human glioblastoma-astrocytoma cells (membranes)
T2 sequence (P25103 whole entry): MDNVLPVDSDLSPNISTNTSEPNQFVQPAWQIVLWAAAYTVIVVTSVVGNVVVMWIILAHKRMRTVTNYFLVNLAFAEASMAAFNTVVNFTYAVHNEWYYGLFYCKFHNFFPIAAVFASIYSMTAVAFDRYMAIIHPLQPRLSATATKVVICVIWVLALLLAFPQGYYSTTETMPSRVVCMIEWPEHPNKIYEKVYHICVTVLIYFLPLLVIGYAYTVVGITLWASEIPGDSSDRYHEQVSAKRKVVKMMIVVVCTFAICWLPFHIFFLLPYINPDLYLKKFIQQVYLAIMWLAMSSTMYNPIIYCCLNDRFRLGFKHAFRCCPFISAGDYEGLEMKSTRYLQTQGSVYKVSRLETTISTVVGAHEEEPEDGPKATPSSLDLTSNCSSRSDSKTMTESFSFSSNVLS
Procedure, shortened: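 Membranes were prepared from U373 human glioblastoma-astrocytoma cells, which express NK-1 endogenously, in 50 mM Tris-HCl pH 7.4 with 3 mM MnCl2, BSA and protease inhibitors. IC50 taken as the midpoint of the specific-binding displacement curve.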

[3] = Table 2, HEK-hSERT membranes, [3H]-citalopram displacement, read-out: SERT IC50

T1 sequence (P31645 whole entry): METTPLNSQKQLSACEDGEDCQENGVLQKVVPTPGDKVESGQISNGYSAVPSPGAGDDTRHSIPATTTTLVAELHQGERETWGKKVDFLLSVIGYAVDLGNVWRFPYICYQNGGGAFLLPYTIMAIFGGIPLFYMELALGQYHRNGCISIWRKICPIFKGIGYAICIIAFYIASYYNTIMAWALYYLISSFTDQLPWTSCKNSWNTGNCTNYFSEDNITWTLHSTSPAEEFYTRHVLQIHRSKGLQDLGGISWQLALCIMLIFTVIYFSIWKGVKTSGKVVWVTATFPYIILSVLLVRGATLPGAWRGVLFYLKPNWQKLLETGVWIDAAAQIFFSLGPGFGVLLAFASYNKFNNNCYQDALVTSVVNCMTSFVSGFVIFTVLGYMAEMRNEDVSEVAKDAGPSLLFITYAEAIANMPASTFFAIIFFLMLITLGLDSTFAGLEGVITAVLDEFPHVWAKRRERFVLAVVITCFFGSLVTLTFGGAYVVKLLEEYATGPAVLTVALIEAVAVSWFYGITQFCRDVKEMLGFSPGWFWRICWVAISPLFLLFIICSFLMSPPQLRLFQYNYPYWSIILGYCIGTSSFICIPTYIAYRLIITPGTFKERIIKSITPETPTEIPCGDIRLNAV

Row | SMILES | IC50 [1, 3] [nM] | IC50 [2] [nM] | IC50 [1] [nM]
1 | CC(C)OC(=O)c1cccc(-c2cc(COCC3(c4ccccc4)CCNCC3)cc(C(F)(F)F)c2)c1 | 100 to 300 | > 300 | 
2 | CCOC(=O)c1ccccc1-c1cc(COCC2(c3ccccc3)CCNCC2)cc(C(F)(F)F)c1 | 100 to 300 | > 300 | 
3 | COc1cccc(-c2cc(COCC3(c4ccccc4)CCNCC3)cc(C(F)(F)F)c2)c1OC | 100 to 300 | 100 to 300 | 
4 | CC(C)Oc1ccc(-c2cc(COCC3(c4ccccc4)CCNCC3)cc(C(F)(F)F)c2)cc1 | 100 to 300 | 100 to 300 | 
5 | CC(=O)c1ccccc1-c1cc(COCC2(c3ccccc3)CCNCC2)cc(C(F)(F)F)c1 | 100 to 300 | > 300 | 
6 | Cc1ccc(-c2cc(COCC3(c4ccccc4)CCNCC3)cc(C(F)(F)F)c2)c2ccccc12 | 100 to 300 | > 300 | 
7 | Cc1cccc(-c2cc(COCC3(c4ccccc4)CCNCC3)cc(C(F)(F)F)c2)c1C | 0.01 to 100 | 100 to 300 | 
8 | Cc1cc(-c2cc(COCC3(c4ccccc4)CCNCC3)cc(C(F)(F)F)c2)ccc1F | 0.01 to 100 | 0.01 to 100 | 
9 | FC(F)(F)c1cc(COCC2(c3ccccc3)CCNCC2)cc(-c2ccc(C3CCCCC3)cc2)c1 | 100 to 300 | > 300 | 
10 | CCc1ccccc1-c1cc(COCC2(c3ccccc3)CCNCC2)cc(C(F)(F)F)c1 | 0.01 to 100 | > 300 | 
11 | Cc1cc(-c2cc(COCC3(c4ccccc4)CCNCC3)cc(C(F)(F)F)c2)cc(C)c1O | 0.01 to 100 | > 300 | 
12 | O=[N+]([O-])c1ccc(-c2cc(COCC3(c4ccccc4)CCNCC3)cc(C(F)(F)F)c2)cc1 | 0.01 to 100 | 0.01 to 100 | 
13 | COc1ccc(-c2cc(COCC3(c4ccccc4)CCNCC3)cc(C(F)(F)F)c2)cc1C | 0.01 to 100 | 0.01 to 100 | 
14 | CCCOc1cccc(-c2cc(COCC3(c4ccccc4)CCNCC3)cc(C(F)(F)F)c2)c1 | 100 to 300 | > 300 | 
15 | COc1ccc(-c2cc(COCC3(c4ccccc4)CCNCC3)cc(C(F)(F)F)c2)c(F)c1F | 0.01 to 100 | 0.01 to 100 | 
16 | COc1c(F)cc(-c2cc(COCC3(c4ccccc4)CCN(C)CC3)cc(C(F)(F)F)c2)cc1F |  | 0.01 to 100 | 0.01 to 100
17 | COc1cc(-c2cc(COCC3(c4ccccc4)CCN(C)CC3)cc(C(F)(F)F)c2)ccc1C#N |  | 0.01 to 100 | 0.01 to 100
18 | COc1cc(F)c(-c2cc(COCC3(c4ccccc4)CCN(C)CC3)cc(C(F)(F)F)c2)cc1F |  | 0.01 to 100 | 0.01 to 100
19 | CN1CCC(COCc2cc(-c3cc(F)c(C#N)cc3F)cc(C(F)(F)F)c2)(c2ccccc2)CC1 |  | 0.01 to 100 | 0.01 to 100
20 | CN1CCC(COCc2cc(-c3ccc(C#N)cc3)cc(C(F)(F)F)c2)(c2ccc(F)cc2F)CC1 |  | 0.01 to 100 | 0.01 to 100
21 | COc1ccc(-c2cc(COCC3(c4ccccc4)CCN(C)CC3)cc(C(F)(F)F)c2)c(F)c1F |  | 0.01 to 100 | 0.01 to 100

Row | SMILES | IC50 [1, 3] [nM] | IC50 [2] [nM] | IC50 [1] [nM]
22 | COc1ccc(-c2cc(COCC3(c4ccccc4)CCN(C)CC3)cc(C(F)(F)F)c2)cc1C |  | 0.01 to 100 | 0.01 to 100
23 | N#Cc1ccc(-c2cc(COCC3(c4ccc(F)cc4C#N)CCNCC3)cc(C(F)(F)F)c2)cc1 | 0.01 to 100 | 0.01 to 100 | 
24 | CN1CCC(COCc2cc(-c3ccc(C#N)cc3)cc(C(F)(F)F)c2)(c2cccc(C#N)c2)CC1 |  | 0.01 to 100 | 0.01 to 100
25 | N#Cc1ccc(-c2cc(COCC3(c4ccc(F)cc4-c4ccccc4)CCNCC3)cc(C(F)(F)F)c2)cc1 | 100 to 300 | 0.01 to 100 | 
26 | N#Cc1ccc(-c2cc(COCC3(c4ccc(F)cc4Br)CCNCC3)cc(C(F)(F)F)c2)cc1 | 0.01 to 100 | 0.01 to 100 | 
27 | N#Cc1ccc(-c2cc(COCC3(c4cccc(Cl)c4)CCNCC3)cc(C(F)(F)F)c2)cc1 | 0.01 to 100 | 0.01 to 100 | 
28 | CN1CCC(COCc2cc(-c3ccc(C#N)cc3)cc(C(F)(F)F)c2)(c2cccnc2)CC1 |  | 0.01 to 100 | 0.01 to 100
29 | N#Cc1ccc(-c2cc(COCC3(c4ccc(F)c(F)c4)CCNCC3)cc(C(F)(F)F)c2)cc1 | 0.01 to 100 | 0.01 to 100 | 
30 | CN1CCC(COCc2cc(-c3ccc(C#N)cc3)cc(C(F)(F)F)c2)(c2ccc(F)c(F)c2)CC1 |  | 0.01 to 100 | 0.01 to 100
31 | CN1CCC(COCc2cc(-c3ccc(C#N)cc3)cc(C(F)(F)F)c2)(c2ccc(Br)cc2)CC1 |  | 0.01 to 100 | 0.01 to 100
32 | CN1CCC(COCc2cc(-c3ccc(C#N)cc3)cc(C(F)(F)F)c2)(c2cccc(Br)c2)CC1 |  | 0.01 to 100 | 0.01 to 100
33 | N#Cc1ccc(-c2cc(COCC3(c4ccc(Br)cc4)CCNCC3)cc(C(F)(F)F)c2)cc1 | 0.01 to 100 | 0.01 to 100 | 
34 | N#Cc1ccc(-c2cc(COCC3(c4cccc(Br)c4)CCNCC3)cc(C(F)(F)F)c2)cc1 | 0.01 to 100 | 0.01 to 100 | 
35 | CN1CCC(COCc2cc(-c3ccc(C#N)cc3)cc(C(F)(F)F)c2)(c2ccc(C#N)cc2)CC1 |  | 0.01 to 100 | 0.01 to 100
36 | CN1CCC(COCc2cc(-c3ccc(C#N)cc3)cc(C(F)(F)F)c2)(c2cccc(Cl)c2)CC1 |  | 0.01 to 100 | 0.01 to 100
37 | CN1CCC(COCc2cc(-c3ccc(C#N)cc3)cc(C(F)(F)F)c2)(c2cccc(C(F)(F)F)c2)CC1 |  | 0.01 to 100 | 0.01 to 100
38 | Cc1cc(-c2cc(COCC3(c4cccnc4)CCN(C)CC3)cc(C(F)(F)F)c2)ccc1C#N |  | 0.01 to 100 | 0.01 to 100
39 | CN1CCC(COCc2cc(-c3ccc(C#N)cc3)cc(C(F)(F)F)c2)(c2ccncc2)CC1 |  | 0.01 to 100 | 0.01 to 100
40 | CN1CCC(COCc2cc(-c3ccc(C#N)cc3)cc(C(F)(F)F)c2)(c2ccc(-c3ccco3)cc2)CC1 |  | 0.01 to 100 | 100 to 300
41 | COc1cccc(C2(COCc3cc(-c4ccc(C#N)cc4)cc(C(F)(F)F)c3)CCN(C)CC2)c1 |  | 0.01 to 100 | 0.01 to 100

Now from value to compound, other results behind:

Row | IC50 [1, 3] [nM] | IC50 [2] [nM] | SMILES | IC50 [1] [nM]
42 | 0.01 to 100 | 0.01 to 100 | CCCCOc1ccc(-c2cc(COCC3(c4ccccc4)CCNCC3)cc(C(F)(F)F)c2)cc1 | 
43 | 0.01 to 100 | 0.01 to 100 | COc1ccc(-c2cc(COCC3(c4ccccc4)CCNCC3)cc(C(F)(F)F)c2)c(OC)n1 | 
44 | 0.01 to 100 | > 300 | FC(F)(F)c1cc(COCC2(c3ccccc3)CCNCC2)cc(-c2ccc(C3CCNCC3)nc2)c1 | 
45 | 0.01 to 100 | 0.01 to 100 | Fc1ccc(F)c(-c2cc(COCC3(c4ccccc4)CCNCC3)cc(C(F)(F)F)c2)c1 | 
46 | 0.01 to 100 | > 300 | FC(F)(F)c1cc(COCC2(c3ccccc3)CCNCC2)cc(-c2cc(Cl)ccc2Cl)c1 | 
47 | 0.01 to 100 | > 300 | Cc1ccc(C)c(-c2cc(COCC3(c4ccccc4)CCNCC3)cc(C(F)(F)F)c2)c1 | 
48 | 0.01 to 100 | 100 to 300 | COc1ccc(F)cc1-c1cc(COCC2(c3ccccc3)CCNCC2)cc(C(F)(F)F)c1 | 
49 | 0.01 to 100 | 100 to 300 | COC(=O)c1cccc(-c2cc(COCC3(c4ccccc4)CCNCC3)cc(C(F)(F)F)c2)c1 | 
50 | 0.01 to 100 | 0.01 to 100 | O=C(Nc1ccc(-c2cc(COCC3(c4ccccc4)CCNCC3)cc(C(F)(F)F)c2)cc1)OCc1ccccc1 | 
51 | 0.01 to 100 | 0.01 to 100 | FC(F)(F)c1cc(COCC2(c3ccccc3)CCNCC2)cc(-c2cccc(OCc3ccccc3)c2)c1 | 
52 | 0.01 to 100 | 0.01 to 100 | Fc1cc(-c2cc(COCC3(c4ccccc4)CCNCC3)cc(C(F)(F)F)c2)cc(F)c1F | 
53 | 0.01 to 100 | 100 to 300 | CCS(=O)(=O)c1ccc(-c2cc(COCC3(c4ccccc4)CCNCC3)cc(C(F)(F)F)c2)cc1 | 
54 | 0.01 to 100 | 0.01 to 100 | COc1cc(-c2cc(COCC3(c4ccccc4)CCNCC3)cc(C(F)(F)F)c2)ccc1O | 
55 | 0.01 to 100 | 0.01 to 100 | CCCCc1ccc(-c2cc(COCC3(c4ccccc4)CCNCC3)cc(C(F)(F)F)c2)cc1 | 
56 | 0.01 to 100 | > 300 | CC(C)c1ccc(-c2cc(COCC3(c4ccccc4)CCNCC3)cc(C(F)(F)F)c2)cc1 | 
57 | 0.01 to 100 | 0.01 to 100 | O=C(OCc1ccccc1)c1ccc(-c2cc(COCC3(c4ccccc4)CCNCC3)cc(C(F)(F)F)c2)cc1 | 
58 | 0.01 to 100 | 100 to 300 | CCOC(=O)c1cccc(-c2cc(COCC3(c4ccccc4)CCNCC3)cc(C(F)(F)F)c2)c1 | 
59 | 0.01 to 100 | > 300 | O=C(OCc1ccccc1)c1cccc(-c2cc(COCC3(c4ccccc4)CCNCC3)cc(C(F)(F)F)c2)c1 | 
60 | 0.01 to 100 | 0.01 to 100 | O=[N+]([O-])c1ccccc1-c1cc(COCC2(c3ccccc3)CCNCC2)cc(C(F)(F)F)c1 | 
61 | 0.01 to 100 | 0.01 to 100 | CC(=O)Nc1ccc(-c2cc(COCC3(c4ccccc4)CCNCC3)cc(C(F)(F)F)c2)cc1 | 
62 | 0.01 to 100 | > 300 | COc1ccc(C)cc1-c1cc(COCC2(c3ccccc3)CCNCC2)cc(C(F)(F)F)c1 | 
63 | 0.01 to 100 | > 300 | COC(=O)c1cc(-c2cc(COCC3(c4ccccc4)CCNCC3)cc(C(F)(F)F)c2)cc([N+](=O)[O-])c1 | 
64 | 0.01 to 100 | 0.01 to 100 | CC(C)OC(=O)c1ccc(-c2cc(COCC3(c4ccccc4)CCNCC3)cc(C(F)(F)F)c2)cc1 | 
65 | 0.01 to 100 | > 300 | COc1ccc2cc(-c3cc(COCC4(c5ccccc5)CCNCC4)cc(C(F)(F)F)c3)ccc2c1 | 
66 | 0.01 to 100 | 100 to 300 | CCOc1ccc2cc(-c3cc(COCC4(c5ccccc5)CCNCC4)cc(C(F)(F)F)c3)ccc2c1 | 
67 | 0.01 to 100 | 0.01 to 100 | COC(=O)c1ccc(-c2cc(COCC3(c4ccccc4)CCNCC3)cc(C(F)(F)F)c2)cc1 | 
